Laboratory results as given in patent US20260193283A1, “CARBOXAMIDE DERIVATIVE HAVING RSK INHIBITORY EFFECT, PHARMACEUTICAL COMPOSITION COMPRISING SAME, AND USE THEREOF” (KINOTECK THERAPEUTICS CO., LTD., priority 2022, published 2026).

What was measured:
RSK2 kinase = target: T1, RSK2 kinase (Homo sapiens, UniProt P51812); assay: HTRF KinEASE-STK assay of RSK2 kinase inhibition in vitro; assay type: biochemical; conditions: 0.18 nM RSK2 recombinase, 10 μM ATP, read-out: IC50, in vitro inhibitory activity on RSK2 kinase
T1 construct: purchased Carna 01-150
T1 sequence (P51812 whole entry): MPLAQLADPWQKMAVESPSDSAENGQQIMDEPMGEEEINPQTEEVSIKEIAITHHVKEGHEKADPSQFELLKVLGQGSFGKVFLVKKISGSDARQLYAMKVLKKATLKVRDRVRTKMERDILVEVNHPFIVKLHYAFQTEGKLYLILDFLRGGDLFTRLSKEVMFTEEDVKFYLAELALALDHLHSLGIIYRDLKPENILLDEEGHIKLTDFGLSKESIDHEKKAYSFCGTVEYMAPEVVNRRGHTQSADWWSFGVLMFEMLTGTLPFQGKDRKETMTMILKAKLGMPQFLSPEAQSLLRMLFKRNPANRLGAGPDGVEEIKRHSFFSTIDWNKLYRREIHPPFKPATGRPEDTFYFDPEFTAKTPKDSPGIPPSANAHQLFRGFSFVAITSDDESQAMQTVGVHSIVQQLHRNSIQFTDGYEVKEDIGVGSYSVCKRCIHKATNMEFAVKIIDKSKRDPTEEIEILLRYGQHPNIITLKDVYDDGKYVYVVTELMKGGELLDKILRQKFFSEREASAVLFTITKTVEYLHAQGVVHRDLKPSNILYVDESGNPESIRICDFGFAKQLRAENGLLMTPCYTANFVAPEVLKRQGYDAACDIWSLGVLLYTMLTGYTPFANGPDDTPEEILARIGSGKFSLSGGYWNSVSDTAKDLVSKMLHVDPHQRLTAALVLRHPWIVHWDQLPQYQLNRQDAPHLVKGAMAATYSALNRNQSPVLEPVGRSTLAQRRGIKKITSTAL
Experimental: The inhibitory effect of small molecule compounds on RSK2 kinase was detected using HTRF KinEASE-STK assay. […] Specifically, firstly, 2.5×RSK2 recombinase and 5×inhibitor were added to a buffer system in a 384 well plate, and incubated at room temperature for 10 minutes, negative control wells without enzyme and positive control wells without compounds were set at the same time, then, 2.5×peptide substrate and ATP were added, and then the reaction began.

MDA-MB-453 cells = assay: Triple negative breast cancer cell proliferation inhibition (CCK-8, 5 days); assay type: cell-based; conditions: Homo sapiens, 120 h, 5 days incubation, read-out: IC50, proliferation inhibitory activity on MDA-MB-453
Experimental: The compound or vehicle control (DMSO) was diluted in culture medium in a 96 well plate, with the final concentrations of 50, 25, 12.5, 6.25, 3.13, 1.56, 0.78, 0.39, 0.2, and 0.1 μM. 1×10^3 MDA-MB-453 cells were inoculated into each well, and the plate was incubated in the incubator for 5 days. After the incubation period, cell survival was quantified using Cell Counting Kit-8 (CCK-8) reagent. In short, the cells were incubated with CCK8 for 2-4 hours, and then the absorbance at 450 nm and 650 nm was measured. CCK-8 is WST-8 (chemical name: 2-(2-methoxy-4-nitrophenyl)-3-(4-nitrophenyl)-5-(2,4-disulfonate benzene)-2H tetrazole monosodium salt), which is reduced to a highly water-soluble yellow formazan dye by dehydrogenases in cells under the action of electron carrier 1-methoxy-5-methylphenazinium sulfate dimethyl ester (1-Methoxy PMS). The number of generated formazan dye substances is directly proportional to the number of live cells, so this characteristic can be used to calculate the survival percentage, as shown in the following equation:
[formula] • As: experimental well (the treatment wells containing cells, different concentrations of drug) • Ab: solvent control well (solvent treatment wells containing cells, 0 concentration of drug) • Ac: blank well (well without cells and drugs)
The cell survival rate data and corresponding compound concentrations were input into GraphPad Prism software to fit and calculate IC50 values.

[1] = Pharmacokinetic study in mice; assay type: in vivo; conditions: mouse; male ICR mice, oral gavage administration, 10 mg/kg, plasma
Experimental: Pharmacokinetic experiments in mice were conducted using male ICR mice weighed 20-25 g, provided by the Experimental Animal Management Department of Shanghai Family Planning Scientific Research Institute. 3 mice were taken and fasted overnight, and then administered orally by gavage (10 mg/kg). Blood samples were collected before administration, at 15 and 30 minutes as well as 1, 2, 4, 8, and 24 hours after administration; in addition, another 3 mice were taken and administered intravenously (1 mg/kg), and blood samples were collected before administration, at 15 and 30 minutes as well as 1, 2, 4, 8, and 24 hours after administration. blood sample was centrifuged at 6800 g, 2-8° C. for 6 minutes, and then the plasma was collected and stored at −80° C. Plasma at each time point were added 10-20 times the amount of methanol or acetonitrile solution containing internal standard, and mixed by vortex for 1 minute, centrifuged at 18000 rpm at 4° C. for 10 minutes, and then the supernatant was taken to analyze by LC-MS/MS directly. The main pharmacokinetic parameters were analyzed using WinNonlin 7.0 software for non compartmental model analysis.

SMILES | IC50 (RSK2 kinase) | other results
C[C@@H]1CNC(=O)c2cc3ccc(C(=O)Nc4cnn(Cc5ccc(P(C)(C)=O)cc5)c4)nc3n21 [Compound 1, (R)—N-(1-(4-(dimethylphosphoryl)benzyl)-1H-pyrazol-4-yl)-9-methyl-6-oxo-6,7,8,9-tetrahydropyridino[3′, 2′: 4,5]pyrrolo [1,2-a]pyrazine-2-carboxamide] | 0.44 nM | –
C[C@@H]1CNC(=O)c2cc3ccc(C(=O)Nc4cnn(Cc5ccc(N=S(C)(C)=O)cc5)c4)nc3n21 [Compound 2, (R)—N-(1-(4-((dimethyl (oxo)-λ^6-sulfanylidene)amino)benzyl)-1H-pyrazol-4-yl)-9-methyl-6-oxo-6,7,8,9-tetrahydropyridino [3′,2′: 4,5]pyrrolo [1,2-a]pyrazine-2-carboxamide] | 0.31 nM | –
C[C@@H]1CNC(=O)c2cc3ccc(C(=O)Nc4cnn(Cc5ccc(S(C)(=N)=O)cc5)c4)nc3n21 (some centres unmarked) [Compound 3] | 0.24 nM | –
C[C@@H]1CNC(=O)c2cc3ccc(C(=O)Nc4cnn(Cc5ccnc(C(C)(C)O)c5)c4)nc3n21 [Compound 4] | 0.42 nM | IC50 (MDA-MB-453 cells): 2660 nM
C[C@@H]1CNC(=O)c2cc3ccc(C(=O)Nc4cnn(Cc5ccc(C(C)(C)O)nc5)c4)nc3n21 [Compound 5] | 0.35 nM | AUC(0-t) [1]: 35100 ng·h/mL; Cmax [1]: 17900 ng/mL; Tmax [1]: 15 min; half-life [1]: 94.2 min; IC50 (MDA-MB-453 cells): 2040 nM
C[C@@H]1CNC(=O)c2cc3cc(F)c(NC(=O)c4cnn(Cc5ccc(N)cc5)c4)nc3n21 [Compound 6, (R)-1-(4-aminobenzyl)-N-(3-fluoro-9-methyl-6-oxo-6,7,8,9-tetrahydropyridino [3′, 2″: 4,5]pyrrolo [1,2-a]pyrazin-2-yl)-1H-pyrazole-4-carboxamide] | 175 nM | –
C[C@@H]1CNC(=O)c2cc3ccc(C(=O)Nc4cnn(Cc5ccc(N)cc5)c4)c(F)c3n21 [Compound 7, (R)—N-(1-(4-aminobenzyl)-1H-pyrazol-4-yl)-6-fluoro-4-methyl-1-oxo-1,2,3,4-tetrahydropyrazino [1,2-a]indole-7-carboxamide] | 99.9 nM | –
CC(c1ccc(C(C)(C)O)nc1)n1cc(NC(=O)c2ccc3cc4n(c3n2)[C@H](C)CNC4=O)cn1 (stereo partly drawn) [Compound 8, (9R)—N-(1-(1-(6-(2-hydroxyprop-2-yl)pyridin-3-yl)ethyl)-1H-pyrazol-4-yl)-9-methyl-6-oxo-6,7,8,9-tetrahydropyridino [3′, 2′: 4,5]pyrrolo [1,2-a]pyrazine-2-carboxamide] | 0.8 nM | IC50 (MDA-MB-453 cells): 5610 nM

Now from value to molecule, other results behind:

IC50 (RSK2 kinase) | SMILES | other results
43 nM | Cc1cc(NC(=O)c2ccc3cc4n(c3n2)[C@H](C)CNC4=O)nn1Cc1ccc(C(C)(C)O)nc1 [Compound 9] | –
0.11 nM | C[C@@H]1CNC(=O)c2cc3ccc(C(=O)Nc4cnn(Cc5ccc(C6(O)CC6)nc5)c4)nc3n21 [Compound 10] | –
0.29 nM | C[C@@H]1CNC(=O)c2cc3ccc(C(=O)Nc4cnn(Cc5ccc(C6(O)CCC6)nc5)c4)nc3n21 [Compound 11] | –
0.43 nM | C[C@@H]1NC(=O)c2cc3ccc(C(=O)Nc4cnn(Cc5ccc(C(C)(C)O)nc5)c4)nc3n2[C@@H]1C [Compound 12] | –
5.43 nM | C[C@@H]1CNC(=O)c2cc3ccc(C(=O)Nc4cnn(Cc5ccc(C(C)(C)O)nc5)c4)c(F)c3n21 [Compound 13] | –
1.58 nM | C[C@H]1Cn2c(cc3ccc(C(=O)Nc4cnn(Cc5ccc(C(C)(C)O)nc5)c4)nc32)C(=O)N1 [Compound 14] | –
0.08 nM | C[C@@H]1CNC(=O)c2cc3ccc(C(=O)Nc4cnn(Cc5cnc(C(C)(C)O)c(F)c5)c4)nc3n21 [Compound 15, (R)—N-(1-((5-fluoro-6-(2-hydroxyprop-2-yl)pyridin-3-yl)methyl)-1H-pyrazol-4-yl)-9-methyl-6-oxo-6,7,8,9-tetrahydropyridino [3, 2′: 4,5]pyrrolo [1,2-a]pyrazine-2-carboxamide] | AUC(0-t) [1]: 99300 ng·h/mL; Cmax [1]: 22800 ng/mL; Tmax [1]: 30 min; half-life [1]: 131 min; IC50 (MDA-MB-453 cells): 2480 nM
0.08 nM | C[C@@H]1NC(=O)c2cc3ccc(C(=O)Nc4cnn(Cc5cnc(C(C)(C)O)c(F)c5)c4)nc3n2[C@@H]1C [Compound 16, (8S, 9R)—N-(1-((5-fluoro-6-(2-hydroxyprop-2-yl)pyridin-3-yl)methyl)-1H-pyrazol-4-yl)-8,9-dimethyl-6-oxo-6,7,8,9-tetrahydropyridino [3′, 2′: 4,5]pyrrolo [1,2-a]pyrazine-2-carboxamide] | –
0.22 nM | [2H]C([2H])([2H])C(O)(c1ccc(Cn2cc(NC(=O)c3ccc4cc5n(c4n3)[C@H](C)CNC5=O)cn2)cn1)C([2H])([2H])[2H] [Compound 17] | –
1.08 nM | C[C@@H]1CNC(=O)c2cc3ccc(C(=O)Nc4cnn(Cc5ccc(N)cc5)c4)nc3n21.Cl [Control Compound II, reference compound] | AUC(0-t) [1]: 4610 ng·h/mL; Cmax [1]: 3420 ng/mL; Tmax [1]: 25.2 min; half-life [1]: 49.2 min; IC50 (MDA-MB-453 cells): 4600 nM
